Experimental data as given in paper PMC9350523 (Dose-Response, 2022).
Ends that are not written are not given here.

Experiments:
BRAF = conditions: cited from earlier work
[1] = tested on: glutamine synthetase 2 (GS2); conditions: cited from earlier work
human PCNA = human PCNA (Homo sapiens, UniProt P12004); assay: Fluorescence anisotropy competition: displacement of 50 nM PL peptide from PCNA; assay type: binding; conditions: for f (hormesis parameter): f not different from 0 (95% confidence interval), no significant hormesis
[2] = GS2 from chloroplasts of Lotus corniculatus
[3] = UNG2(a.a.1-19) competitor, .25 μM PCNA, hormetic curve

Sequence of human PCNA (P12004 whole entry): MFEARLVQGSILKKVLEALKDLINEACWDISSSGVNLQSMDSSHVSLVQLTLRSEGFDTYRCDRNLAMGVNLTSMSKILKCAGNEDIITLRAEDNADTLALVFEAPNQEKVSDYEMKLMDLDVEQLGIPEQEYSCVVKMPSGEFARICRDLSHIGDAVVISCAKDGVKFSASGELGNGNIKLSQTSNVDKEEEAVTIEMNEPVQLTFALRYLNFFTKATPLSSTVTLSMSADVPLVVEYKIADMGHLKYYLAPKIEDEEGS

In the case of `CC(C)(C)c1nc(-c2cccc(NS(=O)(=O)c3c(F)cccc3F)c2F)c(-c2ccnc(N)n2)s1` [dabrafenib], the mode of inhibition (BRAF) is given as “competitive with ATP”.
In the case of `CS(=N)(=O)CC[C@H](N)C(=O)O` (stereo partly shown) [methionine sulfoximine], the mode of inhibition ([1]; GS2) is listed as “competitive with glutamate and a somewhat irreversible inhibitor”, the “GS2 activity at high methionine sulfoximine doses” value [1, 2] is listed as “completely inhibit the enzyme” and the “GS2 activity at low methionine sulfoximine concentrations” value [1, 2] is listed as “allosteric stimulatory effect on other subunits of the octamer”.
For MIGQKTLYSFFSPSPARKR [UNG2(a.a.1-19)], the “b (slope parameter)” value (human PCNA; UNG2(a.a.1-19) competitor, 1 μM PCNA, 50 nM PL peptide, hormetic curve) was 1.497, the “b (slope parameter)” value (human PCNA; UNG2(a.a.1-19) competitor, 1 μM PCNA, 50 nM PL peptide, standard curve) was 1.143 and the “f (hormesis parameter)” value (human PCNA; UNG2(a.a.1-19) competitor, 1 μM PCNA, hormetic curve) was “.0044^ c”. The “b (slope parameter)” value (human PCNA; UNG2(a.a.1-19) competitor, .25 μM PCNA, 50 nM PL peptide, hormetic curve) was 2.798, the “b (slope parameter)” value (human PCNA; UNG2(a.a.1-19) competitor, .25 μM PCNA, 50 nM PL peptide, standard curve) was 3.423 and the “c (lower asymptote)” value (human PCNA; [3]) was “.0572”. The “f (hormesis parameter)” value (human PCNA; [3]) was “.0013^ c”, the “displacement / hormetic response” value (human PCNA; UNG2(a.a.1-19), .25 and 1 μM PCNA, 50 nM PL peptide) was “displaced PL peptide from PCNA without a hormetic response” and the “control: PL peptide anisotropy in the absence of PCNA” value (human PCNA; competitor included in the cuvette without PCNA) was “the fluorescence anisotropy of PL peptide was unchanged”.
